# Experimental data: patent US11440913B2, “Aminoimidazopyridazines as kinase inhibitors” (BRISTOL-MYERS SQUIBB COMPANY, priority 2017, dated 2022)
# Where a name gives a salt, the structure may show the parent alone. Read-outs that look alike come from different tables or passages of the source.
# Columns and labels:
# [1] = molecular target: His-GST-TVMV-hRIPK1(1-324) (Homo sapiens (Human), UniProt Q13546); assay: RIPK1 HTRF Binding Assay; conditions: HTRF binding, 1 h at rt, read-out: RIPK1 (IC50)
# Sequence of His-GST-TVMV-hRIPK1(1-324) (Q13546 1-324): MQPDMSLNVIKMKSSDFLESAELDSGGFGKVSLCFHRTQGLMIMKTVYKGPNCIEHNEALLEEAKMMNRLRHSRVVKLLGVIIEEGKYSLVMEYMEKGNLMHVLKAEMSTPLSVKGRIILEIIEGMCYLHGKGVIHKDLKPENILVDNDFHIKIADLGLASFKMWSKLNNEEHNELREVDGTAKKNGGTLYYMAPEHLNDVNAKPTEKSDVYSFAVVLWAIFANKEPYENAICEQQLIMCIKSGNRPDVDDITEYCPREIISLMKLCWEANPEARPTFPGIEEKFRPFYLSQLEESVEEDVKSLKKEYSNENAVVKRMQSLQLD
# Summary of the method: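 HTRF probe-displacement binding: 1 nM His-GST-TVMV-hRIPK1(1-324) (baculovirus construct), 90.6 nM probe, 0.2 nM anti-GST-Tb in 20 mM HEPES, 10 mM MgCl2, 0.015% Brij-35, 4 mM DTT, 0.05 mg/mL BSA. Incubated 1 h at rt; FRET 520/495 nm ratio, inhibition relative to DMSO-only wells.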
# [2] = test system: MLKL phosphorylation in HT29-L23 human colorectal adenocarcinoma cells; assay: MLKL Phosphorylation High-Content Assay; assay type: cell-based; conditions: 6 h, necroptosis induced with TNFα, SMAC mimetic and Z-VAD, read-out: pMLKL (IC50)
# Summary of the method: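 HT29-L23 cells pretreated 30 min at 37 °C with compound (6.25 to 0.106 μM final), then necroptosis induced with TNFα 35 ng/mL, SMAC mimetic 700 nM and Z-VAD 140 nM for 6 h. Fixed cells immunostained for MLKL pS358 and imaged; IC50 and Ymax from 4-parameter logistic fit.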
SMILES,IC50 [1] [nM],IC50 ([2]; Homo sapiens) [nM],IC50 [2] [nM],IC50 ([1]; TFA) [nM],IC50 ([2]; TFA) [nM]
"CC(=O)Nc1cn2nc(-c3ccc(Cl)c(C(=O)NCc4cc(-c5cnn(C)c5)ccc4F)c3F)ccc2n1 [Example 389, 6-chloro-3-{2-acetamidoimidazo [1,2-b]pyridazin-6-yl}-2-fluoro-N-{[2-fluoro-5-(1-methyl-1H-pyrazol-4-yl)phenyl]methyl} benzamide]",4,8,–,–,–
"CC(=O)Nc1cn2nc(-c3cnc(Cl)c(C(=O)NCc4cc(C(F)(F)F)ccc4Cl)c3)ccc2n1 [Example 274, 2-chloro-N-{[2-chloro-5-(trifluoromethyl)phenyl]methyl}-5-{2-acetamidoimidazo[1,2-b]pyridazin-6-yl}pyridine-3-carboxamide, TFA]",11,31,–,–,–
"O=C(CN1CCC(C(F)(F)F)CC1)Nc1cn2nc(-c3cccc(C(=O)NCC[C@@H](O)c4ccc(Cl)cc4)c3F)ccc2n1 [Example 428, N-[(3R)-3-(4-chlorophenyl)-3-hydroxypropyl]-2-fluoro-3-(2-{2-[4-(trifluoromethyl)piperidin-1-yl]acetamido}imidazo[1,2-b]pyridazin-6-yl)benzamide]",12,9,–,–,–
"CCC(=O)Nc1cn2nc(-c3cnc(OC)c(C(=O)NCc4cc(F)cc(F)c4OCC4CC4)c3)ccc2n1 [Example 4, N-{[2-(cyclopropylmethoxy)-3,5-difluorophenyl]methyl}-2-methoxy-5-{2-propanamidoimidazo[1,2-b]pyridazin-6-yl}pyridine-3-carboxamide]",2,10,–,–,–
"Cc1ncc(-c2ccc3nc(NC(=O)C(C)(C)C#N)cn3n2)cc1C(=O)NCc1ccccc1Sc1ccccc1CO [Example 26, 5-[2-(2-cyano-2,2-dimethylacetamido)imidazo[1,2-b]pyridazin-6-yl]-N-[(2-{[2-(hydroxymethyl)phenyl]sulfanyl}phenyl)methyl]-2-methylpyridine-3-carboxamide]",25,192,–,–,–
"Cc1ncc(-c2ccc3nc(NC(=O)CO)cn3n2)cc1C(=O)N[C@H](C)c1cc(OC(F)(F)F)ccc1F [Example 185, N-[(1R)-1-[2-fluoro-5-(trifluoromethoxy)phenyl]ethyl]-5-[2-(2-hydroxyacetamido)imidazo [1,2-b]pyridazin-6-yl]-2-methylpyridine-3-carboxamide]",30,81,–,–,–
"CC(=O)Nc1cn2nc(-c3cnc(C)c(C(=O)NCc4ccccc4OC4CCCC4)c3)ccc2n1 [Example 225, N-{[2-(cyclopentyloxy)phenyl]methyl}-5-{2-acetamidoimidazo[1,2-b]pyridazin-6-yl}-2-methylpyridine-3-carboxamide]",5,3,–,–,–
"COc1ncc(-c2ccc3nc(NC(C)=O)c(C)n3n2)cc1C(=O)NCc1cc(OC(F)(F)F)ccc1F [Example 6, 5-{2-acetamido-3-methylimidazo[1,2-b]pyridazin-6-yl}-N-{[2-fluoro-5-(trifluoromethoxy)phenyl]methyl}-2-methoxypyridine-3-carboxamide]",25,10,–,–,–
"COc1nc(C)c(-c2ccc3nc(NC(C)=O)cn3n2)cc1C(=O)NCc1ccccc1OCC1CCCC1 [Example 316, N-{[2-(cyclopentylmethoxy)phenyl]methyl}-5-{2-acetamidoimidazo[1,2-b]pyridazin-6-yl}-2-methoxy-6-methylpyridine-3-carboxamide]",4,8,–,–,–
"COc1ncc(-c2ccc3nc(NC(C)=O)cn3n2)cc1C(=O)NCc1cc(OC(F)(F)F)ccc1F [Example 145, 5-{2-acetamidoimidazo[1,2-b]pyridazin-6-yl}-N-{[2-fluoro-5-(trifluoro-methoxy)phenyl](deutero)methyl}-2-methoxypyridine-3-carboxamide]",5,–,27,–,–
"[2H]C([2H])([2H])[C@@H](NC(=O)c1c(C)ccc(-c2ccc3nc(NC(C)=O)cn3n2)c1F)c1cc(C(F)(F)F)ccc1F [Example 413, 3-{2-acetamidoimidazo [1,2-b]pyridazin-6-yl}-2-fluoro-N-[(1R)-1-[2-fluoro-5-(trifluoromethyl)phenyl](2,2,2-Â^2Hâ,f)ethyl]-6-methylbenzamide]",3,1,–,–,–
"CC(=O)Nc1cn2nc(-c3cc(C(=O)NCc4cccc(F)c4OC4C[C@@H](C)O[C@@H](C)C4)c(C)nc3C)ccc2n1 (stereo partly drawn) [Example 63, N-[(2-{[(2R,6S)-2,6-dimethyloxan-4-yl]oxy}-3-fluorophenyl)methyl]-5-{2-acetamidoimidazo[1,2-b]pyridazin-6-yl}-2,6-dimethylpyridine-3-carboxamide]",149,340,–,–,–
"COc1ncc(-c2ccc3nc(NC(C)=O)cn3n2)cc1C(=O)NCc1cc(F)cc(F)c1OC1CCOCC1 [Example 129, N-{[3,5-difluoro-2-(oxan-4-yloxy)phenyl]methyl}-5-{2-acetamidoimidazo[1,2-b]pyridazin-6-yl}-2-methoxypyridine-3-carboxamide, TFA]",1,–,2,–,–
"COc1cc(F)c(-c2ccc3nc(NC(C)=O)cn3n2)cc1C(=O)NCc1c(F)cccc1OC [Example 420, 5-{2-acetamidoimidazo [1,2-b]pyridazin-6-yl}-4-fluoro-N-[(2-fluoro-6-methoxyphenyl)methyl]-2-methoxybenzamide]",90,77,–,–,–
"COc1ncc(-c2ccc3nc(NC(C)=O)cn3n2)cc1C(=O)NCc1cccc(OC(F)(F)F)c1 [Example 126, 5-{2-acetamidoimidazo[1,2-b]pyridazin-6-yl}-2-methoxy-N-{[3-(trifluoro-methoxy)phenyl]methyl}pyridine-3-carboxamide]",73,78,–,–,–
"Cc1ncc(-c2ccc3nc(NC(=O)CN4CC(F)(F)C4)cn3n2)cc1C(=O)N[C@H](C)c1cc(OC(F)(F)F)ccc1F [Example 335, 5-{2-[2-(3,3-difluoroazetidin-1-yl)acetamido]-imidazo[1,2-b]pyridazin-6-yl}-N-[(1R)-1-[2-fluoro-5-(trifluoromethoxy)-phenyl]ethyl]-2-methylpyridine-3-carboxamide]",28,9,–,–,–
"COc1ncc(-c2ccc3nc(NC(C)=O)cn3n2)cc1C(=O)NC(C)c1c(F)cccc1OCC1CC1 (stereo not drawn) [Example 124, N-{1-[2-(cyclopropylmethoxy)-6-fluorophenyl]ethyl}-5-{2-acetamidoimidazo[1,2-b]pyridazin-6-yl}-2-methoxypyridine-3-carboxamide, TFA]",–,–,–,6,14
"CC(=O)Nc1cn2nc(-c3cccc(C(=O)NCc4cc(OC(F)(F)F)ccc4F)c3F)ccc2n1 [Example 424, 3-{2-acetamidoimidazo [1,2-b]pyridazin-6-yl}-2-fluoro-N-{[2-fluoro-5-(trifluoromethoxy)phenyl]methyl} benzamide]",2,3,–,–,–
"[2H]C([2H])(Oc1c(F)cc(F)cc1CNC(=O)c1cc(-c2ccc3nc(NC(C)=O)cn3n2)cnc1Cl)C1CC1 [Example 266, 2-chloro-N-({2-[cyclopropyl(deutero)methoxy]-3,5-difluorophenyl}methyl)-5-{2-acetamidoimidazo[1,2-b]pyridazin-6-yl}pyridine-3-carboxamide, TFA]",3,18,–,–,–
"[2H]C([2H])([2H])Oc1nc(C)c(-c2ccc3nc(NC(C)=O)cn3n2)cc1C(=O)NCc1cc(F)cc(F)c1OC1CC(C)OC(C)C1 (stereo not drawn) [Example 167, N-({2-[(2,6-dimethyloxan-4-yl)oxy]-3,5-difluorophenyl}methyl)-5-{2-acetamidoimidazo[1,2-b]pyridazin-6-yl}-2-(deutero)methoxy-6-methylpyridine-3-carboxamide]",18,13,–,–,–
"[2H]C([2H])([2H])Oc1ncc(-c2ccc3nc(NC(C)=O)cn3n2)cc1C(=O)NCc1cc(F)cc(F)c1OC1COC1 [Example 48, N-{[3,5-difluoro-2-(oxetan-3-yloxy)phenyl]methyl}-5-{2-acetamidoimidazo[1,2-b]pyridazin-6-yl}-2-(D3)methoxypyridine-3-carboxamide]",10,87,–,–,–
"CC(=O)Nc1cn2nc(-c3cc(C(=O)NCc4cc(OCC5CC5)ccc4F)c(C)nc3C)ccc2n1 [Example 326, N-{[5-(cyclopropylmethoxy)-2-fluorophenyl]methyl}-5-{2-acetamidoimidazo[1,2-b]pyridazin-6-yl}-2,6-dimethylpyridine-3-carboxamide]",6,10,–,–,–
"COc1ncc(-c2ccc3nc(NC(C)=O)cn3n2)cc1C(=O)N(C)Cc1cccc(OC(F)(F)F)c1 [Example 143, 5-{2-acetamidoimidazo[1,2-b]pyridazin-6-yl}-2-methoxy-N-methyl-N-{[3-(trifluoromethoxy)phenyl]meth-yl}pyridine-3-carboxamide]",8,4,–,–,–
"CC(=O)Nc1cn2nc(-c3ccc(C)c(C(=O)NCC[C@@H](O)c4ccc(Cl)cc4)c3)ccc2n1 [Example 397, N-[(3R)-3-(4-chlorophenyl)-3-hydroxypropyl]-5-{2-acetamidoimidazo [1,2-b]pyridazin-6-yl}-2-methylbenzamide]",3,3,–,–,–
